Where two headings read alike, the source gives them in different places.
Tests used:
d(G4C2)8 = assay: Biolayer interferometry (BLI) binding; settings: for Kd: BLI
Method: (§1) Biolayer Interferometry (BLI). BLI studies were performed similarly as previously described (12) using an Octet RED96. Briefly, 5′-biotinylated nucleic acids were folded by heating at 95° C. for 4 min in 10 mM sodium phosphate buffer, pH 7, followed by slowly cooling to room temperature. Then, to the folded RNA were added the following components: 1.386 mL 1×DPBS (21-031-CV, Corning), 180 μL freshly prepared 1% (w/v) BSA, 36 μL 1% (v/v) Tween-20, and 18 μL DMSO (1% final concentration) in a final volume of 1.8 mL. The final concentration of RNA was 0.5 μM. Separately, serial dilutions of the compound of interest were prepared in the same buffer.
(§2) Streptavidin sensors (SA, #18-5019, ForteBio) were equilibrated with buffer for 10 min at room temperature using 96-well black microplate (Greiner; Catalog #: 655209). The following time intervals were used during data acquisition (30° C. with shaking at 1000 rpm): baseline step, 180 s; loading of RNA, 900 s; washing, 180 s; association of compound, 1800 s; and dissociation of compound, 1800 s. The resulting curves were analyzed and processed using Octet Data Analysis software version 9.1 by subtracting the response of the sensors recorded upon incubation with solutions containing compound and no RNA (parallel reference). The data were then fitted assuming reversible binding using the entire time interval for association and dissociation using either 1:1 or the 2:1 heterogeneous binding curve fitting model. The reported Kd,n, kon,n and koff,n values represent the average of two independent experiments.

r(G2C4)8 = assay: Biolayer interferometry (BLI) binding
Method: as §1, §2

[1] = tested on: RAN translation of r(G4C2)66; assay: RAN translation assay in HEK293T cells; type: cell-based, human
Method: RAN Translation Assay. Inhibition of RAN translation in HEK239T cells was completed as previously described (12). Briefly, HEK293T cells (6×10^6 cells) were seeded in growth medium and incubated at 37° C. overnight. Cells were co-transfected with 2 μg of a plasmid encoding r(G4C2)66-No ATG-NanoLuciferase and 1 μg SV40-Firefly luciferase plasmid with Lipofectamine 3000 (Life Technologies) per the manufacturer's protocols. Following transfection, the cells (˜8000/well) were plated in a clear bottom 384-well plate and incubated at 37° C. for 2 h. Compounds were added in growth medium such that the final concentration of DMSO was less than 1%. The G4C2-LNA and control-LNA (Table 3) were transfected with RNAiMax at a final concentration of 100 nM following transfection with RNAiMax (Life Technologies) per the manufacturer's recommended protocol. RAN and canonical translation was measured following 24 h treatment using a Dual-Luciferase® Reporter Assay System (Promega) following manufacturer's protocol. Experiments were performed as biological triplicates (n=3). Luminescence from Nano-Luciferase activity (RAN translation) was normalized to luminescence from firefly luciferase activity. This ratio for vehicle-treated samples was then set to 1 and the ratios for treated samples normalized accordingly.

r(G4C2)8 = assay: RIBOTAC cleavage of r(G4C2)8 in vitro, FRET assay with RNase L; type: biochemical; settings: r(G4C2)8 labeled Cy5/Cy3
Method: RIBOTAC Cleavage of […] in vitro: Gel Analysis. A model of r(G4C2)^exp, r(G4C2)8 was radioactively labeled at its 5′ end and purified on a denaturing 15% polyacrylamide gel as previously described (12, 57). Then, 25 nM of labeled RNA was folded by heating at 95° C. for 5 min in 1× Rnase L buffer (25 mM Tris-HCl, pH7.4, and 100 mM NaCl) and allowed to slowly cool to room temperature. To the folded RNA was added 2-Mercaptoethanol (7 mM final concentration), ATP (50 µM final concentration), and MgCl2 (10 mM final concentration). Compound was added, and the samples were incubated for 15 min at room temperature. Next, Rnase L was added to a final concentration of 25 or 50 nM, and the samples were incubated at 37° C. (1 h or overnight). Fragments were separated on a denaturing 15% polyacrylamide gel, imaged by phosphorimaging with a Typhoon FLA 9500, and quantified with BioRad's QuantityOne software. All studies were performed in duplicate.
RIBOTAC Cleavage of r(G4C2)8 in vitro: FRET Assay. A FRET assay was developed to monitor RIBOTAC-induced cleavage of r(G4C2)8 by Rnase L. This assay uses r(G4C2)8 labeled with Cy5 and Cy3, at the 5′ and 3′ end, respectively (Dharmacon). […] Fluorescence was measured on a Molecular Devices SpectraMax M5 plate reader (Cy3, Ex.: 554 nm; Em.: 568 nm; Cy5, Ex.: 649 nm, Em.: 666 nm; FRET, Ex.: 554 nm, Em.: 666 nm). […]

[2] = tested on: transcripts containing short, non-pathogenic r(G4C2) repeats; assay: Off-target RT-qPCR of genes with short r(G4C2) repeats in patient-derived LCL; type: cell-based, human; settings: 500 nM
Poly(GP) = Poly(GP) sandwich immunoassay in brain of +/+PWR500 mice; type: in vivo, mouse
Method: Therapeutic Efficacy in a c9ALS/FD mouse model. All animal studies were completed as approved by the Scripps Florida Institutional Animal Care and Use Committee. A total of 24 mice (12+/+PWR500 [7 Male and 5 Female] and 12 WT [6 Male and 6 Female]) mice, age- and gender-matched and ranging in age from 18-22 weeks old were used in therapeutic efficacy studies (Table 6). Mice were anesthetized by intraperitoneal (i.p.) injection of 10 mg/mL Ketamine:1 mg/mL Xylazine solution. Intracerebroventricular (ICV) stereotactic injections of 10 μL of 7 (33 nmol) were administered into the right ventricle using the following coordinates: 0.2 mm posterior and 1.0 mm lateral to the right from the bregma and 3 mm deep. Mice were treated with 7 or vehicle consisting of 1% DMSO in Saline. Three weeks post-treatment, mice were euthanized, and tissue was harvested for study.
Measuring Poly(GP) by MSD. Postmortem brain tissue was harvested and sliced sagittal at the midline. The left hemisphere was frozen for protein and RNA analysis. The left hemisphere of each brain was homogenized in 300 μL of ice-cold Tris-EDTA buffer with 2× protease inhibitors. […] Protein concentrations were measured by BCA assay (Pierce Biotechnology) and Poly(GP) was measured as described above. Statistical analysis was measured using an unpaired t-test with Welch's correction.

| selective for r(G4C2)8 over d(G4C2)8 (d(G4C2)8) [fold] | Kd (d(G4C2)8; read-out: Kd, 1) [nM] | Kd (d(G4C2)8; read-out: Kd, 2) [nM] | selective for r(G4C2)8 over r(G2C4)8 (r(G2C4)8) [fold] | Kd (r(G2C4)8; BLI, read-out: Kd, 1) [nM] | FRET signal upon addition of compound and Rnase L (r(G4C2)8) | SMILES | RAN translation of r(G4C2)66 (Nano-luciferase activity) [1] | abundance of eight transcripts with short r(G4C2) repeats [2] | reduction of Poly(GP) (Poly(GP); 33 nmol ICV, three weeks, brain) [%] | actin protein expression (control) (Poly(GP); +/+PWR500 or WT mice) |
| --- | --- | --- | --- | --- | --- | --- | --- | --- | --- | --- |
| ~225 | 900 | 3600 | ~10 | 400 |  | Cc1c2ccncc2c(C)c2c1[nH]c1ccc(OCCOCCOCCNCCOCCOCCOc3ccc4[nH]c5c(C)c6ccncc6c(C)c5c4c3)cc12 [Compound 3] | inhibited |  |  |  |
|  |  |  |  |  | dose dependently decreased | CCOC(=O)C1=C(Nc2ccccc2)S/C(=C\c2ccc(OCCOCCOCCOCCNC(=O)CCC(=O)N(CCOCCOCCOc3ccc4[nH]c5c(C)c6ccncc6c(C)c5c4c3)CCOCCOCCOc3ccc4[nH]c5c(C)c6ccncc6c(C)c5c4c3)c(O)c2)C1=O [Compound 7] |  | No decrease | 74±24 | no decrease |

From patent US20230381170A1, “METHOD FOR TREATING ALS/FTD THROUGH DEGRADATION OF RNA REPEAT EXPANSION” (University of Florida Research Foundation, Incorporated, priority 2020, published 2023)
